From PMC11078216, “Discovery of potent and selective activity-based probes (ABPs) for the deubiquitinating enzyme USP30” (RSC Chemical Biology, 2024)

Biological target: T1, USP30 (Homo sapiens, UniProt Q70CQ3)
T1 construct: Catalog #E-582 residues 57-517; purchased E-582
T1 sequence (Q70CQ3 57-517): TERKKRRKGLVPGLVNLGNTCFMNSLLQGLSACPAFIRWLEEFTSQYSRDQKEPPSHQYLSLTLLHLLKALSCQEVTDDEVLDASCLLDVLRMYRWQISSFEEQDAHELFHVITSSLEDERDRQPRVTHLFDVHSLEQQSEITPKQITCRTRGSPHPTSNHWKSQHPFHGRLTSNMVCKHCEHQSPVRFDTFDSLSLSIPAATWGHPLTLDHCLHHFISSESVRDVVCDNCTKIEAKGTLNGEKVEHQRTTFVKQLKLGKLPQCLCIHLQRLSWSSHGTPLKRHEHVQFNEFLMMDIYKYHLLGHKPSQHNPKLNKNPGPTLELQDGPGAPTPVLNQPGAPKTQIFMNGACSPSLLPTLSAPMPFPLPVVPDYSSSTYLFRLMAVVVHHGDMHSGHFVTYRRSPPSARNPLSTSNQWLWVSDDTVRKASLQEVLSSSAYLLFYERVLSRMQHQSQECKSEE
Experiment: USP30 FP kinetic analysis (kobs/I, Ki, kinact) using Ub-Lys(TAMRA)-Gly
Format: biochemical
Conditions: for kinact/KI: read-out: kobs/I
Procedure: We further characterised inhibition kinetics for ABPs in a FP assay using Ub-Lys(TAMRA)-Gly. kobs/I, Ki and kinact determination assay was performed using 30 nM USP30 and 100 nM Ub-Lys(TAMRA)-Gly as described in ESI, ^† Section S3.1.c. FP was monitored kinetically over an hour after addition of the substrate, and response curves fitted to y = (vi/kobs) (1 − exp(−kobsx)) to calculate kobs/I, 5680 (95% Cl = 4723–6638) M^−1 s^−1 for IMP-2587, and 3021 (95% Cl = 2350–3693) M^−1 s^−1 for IMP-2586 (Fig. S1, ESI ^†).
4. Biochemical and biological methods and proteomics
1) Biochemical USP30 fluorescence polarisation (FP) assay using Ub-Lys(TAMRA)-Gly […]
USP30 was diluted in reaction buffer A (40 mM Tris, pH 7.5, 0.005% Tween 20, 0.5 mg/ml BSA, 5 mM betamercaptoethanol) and 10 μL of diluted 10.5 nM […]
b. USP30 biochemical kinetic assay
Reactions were performed in triplicate in black 384 well plates (small volume, Greiner 784076) in a final reaction volume of 20 ul. […]
Pherastar Plus (BMG Labtech). l Excitation 540 nm; l Emission 590 nm.
Inhibition kinetics for compound ABP 2 and ABP 4 were determined by preparing compound dilution plates at 21× final concentration in 50% DMSO in water. 50% DMSO (1 μL) or diluted compound (1 μL) was added to the reaction plate. Substrate Ub-TAMRA (200 nM, 10 μL) (final concentration: 100 nM) was prepared in buffer A described in section 3.1.a and added to the reaction plate. Reactions were initiated by the addition of USP30 (21 nM, 10 μL) (final concentration 10 nM), and fluorescence polarisation read immediately for 1 h in every 2 min. Analysis was performed in GraphPad Prism.
Kinetic progress curves were fitted to equation y = (vi/kobs) (1 − exp(−kobs*x)) to determine the kobs value (for first 30 min data). The kobs value was then plotted against the inhibitor concentration to […]

[1] = 30 nM USP30, 100 nM Ub-Lys(TAMRA)-Gly, nonlinear regression to kobs = kinact/(1 + (Ki/x))

SMILES | KI (inactivation) [1] [µM] | Ki [1] [µM] | kinact/KI [M⁻¹ s⁻¹]
C#Cc1cccc(-c2cc(NC(=O)CC3CCN(C#N)C3)on2)c1 (centres unmarked) [IMP-2587] | 0.0427 | 0.0428 | 5680
N#CN1CC[C@@H](NC(=O)c2cc(-c3ccccc3Oc3ccc(N=[N+]=[N-])cc3)n[nH]2)C1 [IMP-2586] | – | 0.0056 | 3020
